Data reported in patent publication US11325955B2, “Stabilized anti-microbial peptides for the treatment of antibiotic-resistant bacterial infections” (priority 2017, dated 2022).
Values after ≈ are worked out from the molar mass of the structure shown. Where two headings read alike, the source gives them in different places. Positions of bridges follow the written chain, without caps; N, C: chain ends. Non-standard residues stand in square brackets, D forms with d. Residues, ends and D or L forms follow the SMILES beside them. S5 = C=CCCC[C@](C)(N)C(=O)O; Nle = CCCC[C@H](N)C(=O)O

Experiments:
[1] = test system: Methicillin-resistant S Aureus; format: cell-based
Experimental: (§1) The following microbroth dilution protocol was adapted to determine the minimum inhibitory concentration (MIC) of each peptide. First, Mueller-Hinton broth (MHB) was passed through an anion exchange column to remove polyanionic species and generate refined MHB. […] Briefly, bacterial cells were grown overnight in refined MHB at 37° C. and then diluted and allowed to grow again for several hours. Serial dilutions of peptide stocks in water (10 μl) were prepared using clear round-bottom polypropylene 96-well plates. Then 90 μl of bacteria in refined MHB was added to give a final inoculum of 5×10^5 CFU/ml. The plates were then covered with porous tape to reduce evaporation, and incubated for 20-24 hours at 37° C. The MIC is the minimum peptide concentration at which no visible growth was observed.
(§2) StAMPs Mag(i+4)2,15(A9K), Pleu(i+4)1,15(A9K) and Pleu(i+4)1,15 were also then tested against 4 clinical isolates of S. aureus of which two were methicillin-susceptible (MSSA) and two were methicillin-resistant (MRSA) (Table 5).

[2] = test system: Methicillin-susceptible S Aureus; format: cell-based
Experimental: as §1, §2

[3] = test system: E. coli clinical isolates that harbor the MCR-1 plasmid; format: cell-based
Experimental: (§3) StAMPs were screened against a panel of MDR clinical samples obtained from the Antimicrobial Resistance Isolate Bank of the Centers for Disease Control and Prevention (Atlanta, Ga.).
as §1
(§4) The first three StAMPs of Table 2 in Example 3 were then tested against 39 clinical isolates of A. baumannii with various degrees of colistin resistance (Table 3, 4).

[4] = test system: human red blood cells (RBCs); assay: Hemolytic activity assay; format: cell-based; settings: peptide at 25 μg/ml, 1 hour at 37° C.
Experimental: For the determination of hemolytic activity, human blood samples were centrifuged to isolate red blood cells (RBCs), which are then washed and suspended in phosphate-buffered saline to yield a 1% (v/v) suspension. The suspension was then added to serial dilutions of peptide stocks in water in clear round-bottom polypropylene 96-well plates and the plates were incubated for 1 hour at 37° C. After incubation, the plates were centrifuged and the supernatant was isolated to determine the amount of hemoglobin released using a spectrophotometer (570 nm), according to the equation: % Hemolysis=(Treated Absorbance−Untreated Control Absorbance)/(1% Triton-X100 Treated Absorbance−Untreated Control Absorbance). The minimum hemolytic concentration (MHC) is the peptide concentration at which there is less than 1% hemoglobin release.

[5] = test system: A. baumannii clinical isolates; format: cell-based
Experimental: as §3, §1, §4

[6] = test system: S aureus; format: cell-based
Experimental: as §1

[7] = test system: P aeruginosa; format: cell-based
Experimental: as §1

[8] = test system: B cereus; format: cell-based
Experimental: as §1

[9] = test system: E coli; format: cell-based
Experimental: as §1

[10] = test system: primary human renal proximal tubule epithelial cells (pRPTECs); settings: 24-hour incubation, FIG. 1
Experimental: In one embodiment, pRPTECs are seeded at a density of 10,000 cells per well on 96 well plates and incubated for 48 hours at 37° C. Cells are then treated with different concentrations of the StAMP and incubated for another 24-to-48 hour period. Cell viability is then determined and/or lactate dehydrogenase (LDH) release is measured.
Briefly, pRPTECs in complete growth cell medium were seeded in a 96 well plate at a density of 10,000 cells per well and incubated at 37° C. for 48 hours. Complete medium was then removed and replaced with a toxicity assay medium to which various concentrations of StAMP were added. Cells were then further incubated for 24 to 48 hours after which cell medium was collected and assayed for the presence of Lactate Dehydrogenase (LDH) using a Cytotoxicity Detection Kit (LDH) (Roche).

[11] = E. coli CDC Bank# 346, contains MCR-1 plasmid
[12] = E. coli CDC Bank# 349, contains MCR-1 plasmid

CC(C)C[C@H](NC(=O)[C@H](Cc1ccc(O)cc1)NC(=O)[C@H](Cc1c[nH]cn1)NC(=O)[C@@H](NC(=O)[C@H](CC(C)C)NC(=O)[C@]1(C)CCCC=CCCC[C@](C)(NC(=O)[C@H](Cc2c[nH]cn2)NC(=O)[C@H](CCCCN)NC(=O)CNC(=O)[C@@H](NC(=O)[C@H](Cc2c[nH]cn2)NC(=O)[C@H](C)NC(=O)[C@H](CCCCN)NC(=O)[C@H](CCCCN)NC(=O)[C@H](CCCCN)NC(=O)[C@]2(C)CCCC=CCCC[C@](C)(NC(=O)CN)C(=O)NCC(=O)N[C@@H](CO)C(=O)N[C@@H](Cc3ccccc3)C(=O)N2)C(C)C)C(=O)NCC(=O)N[C@@H](CCCCN)C(=O)N[C@@H](C)C(=O)N1)[C@@H](C)O)C(N)=O [Pleu(i+4)1,15(A9K), GXGSFXKKKAHVGKHXGKAXLTHYL] (H-G[S5]GSF[S5]KKKAHVGKH[S5]GKA[S5]LTHYL-NH2; staple 2-6, 16-20)
Antimicrobial Activity MIC [1]: 3.1 µg/mL | Antimicrobial Activity MIC [2]: 3.1 µg/mL | Antimicrobial Activity MIC [3, 11]: 1.6 µg/mL | Antimicrobial Activity MIC [3, 12]: 1.6 µg/mL | % Hemolysis at 25 μg/ml [4]: 16.3%

Colistin [reference compound]
Antimicrobial Activity MIC [3, 11]: 2.5 µg/mL | Antimicrobial Activity MIC [3, 12]: 1.2 µg/mL | Antimicrobial Activity MIC ([5]; A. baumannii CDC Bank# 275): 1 µg/mL | Antimicrobial Activity MIC ([5]; A. baumannii CDC Bank# 276): 2 µg/mL | Antimicrobial Activity MIC ([5]; A. baumannii CDC Bank# 277): 1 µg/mL | Antimicrobial Activity MIC ([5]; A. baumannii CDC Bank# 278): 1 µg/mL | Antimicrobial Activity MIC ([5]; A. baumannii CDC Bank# 279): 1 µg/mL | Antimicrobial Activity MIC ([5]; A. baumannii CDC Bank# 280): 1 µg/mL | Antimicrobial Activity MIC ([5]; A. baumannii CDC Bank# 281): 1 µg/mL | Antimicrobial Activity MIC ([5]; A. baumannii CDC Bank# 282): 0.5 µg/mL | Antimicrobial Activity MIC ([5]; A. baumannii CDC Bank# 283): 1 µg/mL | Antimicrobial Activity MIC ([5]; A. baumannii CDC Bank# 284): 1 µg/mL | Antimicrobial Activity MIC ([5]; A. baumannii CDC Bank# 285): 1 µg/mL | Antimicrobial Activity MIC ([5]; A. baumannii CDC Bank# 286): 0.5 µg/mL | Antimicrobial Activity MIC ([5]; A. baumannii CDC Bank# 287): 1 µg/mL | Antimicrobial Activity MIC ([5]; A. baumannii CDC Bank# 288): >8 µg/mL | Antimicrobial Activity MIC ([5]; A. baumannii CDC Bank# 289): 2 µg/mL | Antimicrobial Activity MIC ([5]; A. baumannii CDC Bank# 290): 1 µg/mL | Antimicrobial Activity MIC ([5]; A. baumannii CDC Bank# 291): 1 µg/mL | Antimicrobial Activity MIC ([5]; A. baumannii CDC Bank# 292): 1 µg/mL | Antimicrobial Activity MIC ([5]; A. baumannii CDC Bank# 293): 0.5 µg/mL | Antimicrobial Activity MIC ([5]; A. baumannii CDC Bank# 294): 1 µg/mL | Antimicrobial Activity MIC ([5]; A. baumannii CDC Bank# 295): 1 µg/mL | Antimicrobial Activity MIC ([5]; A. baumannii CDC Bank# 296): 0.5 µg/mL | Antimicrobial Activity MIC ([5]; A. baumannii CDC Bank# 297): 1 µg/mL | Antimicrobial Activity MIC ([5]; A. baumannii CDC Bank# 298): 0.5 µg/mL | Antimicrobial Activity MIC ([5]; A. baumannii CDC Bank# 299): 2 µg/mL | Antimicrobial Activity MIC ([5]; A. baumannii CDC Bank# 300): 1 µg/mL | Antimicrobial Activity MIC ([5]; A. baumannii CDC Bank# 301): 0.5 µg/mL | Antimicrobial Activity MIC ([5]; A. baumannii CDC Bank# 302): 2 µg/mL | Antimicrobial Activity MIC ([5]; A. baumannii CDC Bank# 303): >8 µg/mL | Antimicrobial Activity MIC ([5]; A. baumannii CDC Bank# 304): 4 µg/mL | Antimicrobial Activity MIC ([5]; A. baumannii CDC Bank# 305): 1 µg/mL | Antimicrobial Activity MIC ([5]; A. baumannii CDC Bank# 306): 1 µg/mL | Antimicrobial Activity MIC ([5]; A. baumannii CDC Bank# 307): >8 µg/mL | Antimicrobial Activity MIC ([5]; A. baumannii CDC Bank# 308): 8 µg/mL | Antimicrobial Activity MIC ([5]; A. baumannii CDC Bank# 309): 8 µg/mL | Antimicrobial Activity MIC ([5]; A. baumannii CDC Bank# 310): 8 µg/mL | Antimicrobial Activity MIC ([5]; A. baumannii CDC Bank# 311): 1 µg/mL | Antimicrobial Activity MIC ([5]; A. baumannii CDC Bank# 312): 0.5 µg/mL | Antimicrobial Activity MIC ([5]; A. baumannii CDC Bank# 313): 1 µg/mL

CC(C)[C@@H]1NC(=O)[C@@](C)(NC(=O)[C@H](C)NC(=O)[C@H](CCCCN)NC(=O)CNC(=O)[C@H](Cc2ccccc2)NC(=O)[C@H](CCCCN)NC(=O)[C@H](CCCCN)NC(=O)[C@H](CCCCN)NC(=O)[C@H](CO)NC(=O)[C@H](Cc2c[nH]cn2)NC(=O)[C@]2(C)CCCC=CCCC[C@](C)(NC(=O)CN)C(=O)NCC(=O)N[C@@H](CCCCN)C(=O)N[C@@H](Cc3ccccc3)C(=O)N2)CCCC=CCCC[C@@](C)(C(=O)N[C@@H](C)C(=O)N[C@@H](CC(N)=O)C(=O)N[C@@H](CO)C(N)=O)NC(=O)[C@H](CCC(=O)O)NC(=O)CNC1=O [Mag(i+4)1,15(A9K, B21A), GXGKFXHSKKKFGKAXVGEXANS] (H-G[S5]GKF[S5]HSKKKFGKA[S5]VGE[S5]ANS-NH2; staple 2-6, 16-20)
MIC S aureus [6]: >50 µg/mL | MIC P aeruginosa [7]: 8.8 µg/mL (≈ 3.55 µM) | MIC B cereus [8]: 50 µg/mL (≈ 20.2 µM) | MIC E coli [9]: 6.2 µg/mL (≈ 2.5 µM) | pRPTEC lysis (% LDH release) relative to Mag(i+4)1,15(A9K) [10]: significantly attenuated pRPTEC lysis

CCCC[C@H](NC(=O)[C@]1(C)CCCC=CCCC[C@](C)(NC(=O)[C@H](C)NC(=O)[C@H](CCCCN)NC(=O)CNC(=O)[C@H](Cc2ccccc2)NC(=O)[C@H](CCCCN)NC(=O)[C@H](CCCCN)NC(=O)[C@H](CCCCN)NC(=O)[C@H](CO)NC(=O)[C@]2(C)CCCC=CCCC[C@](C)(NC(=O)[C@@H](NC(=O)CN)[C@@H](C)CC)C(=O)N[C@@H](CCCCN)C(=O)N[C@@H](Cc3ccccc3)C(=O)N[C@@H](CC(C)C)C(=O)N2)C(=O)N[C@@H](C(C)C)C(=O)NCC(=O)N[C@@H](CCC(=O)O)C(=O)N1)C(=O)N[C@@H](CC(N)=O)C(=O)N[C@@H](CO)C(N)=O [Mag(i+4)2,15(A9K), GIXKFLXSKKKFGKAXVGEXBNS] (H-GI[S5]KFL[S5]SKKKFGKA[S5]VGE[S5][Nle]NS-NH2; staple 3-7, 16-20)
Antimicrobial Activity MIC [1]: 1.6 µg/mL | Antimicrobial Activity MIC [2]: 1.6 µg/mL | Antimicrobial Activity MIC [3, 11]: 2.2 µg/mL | Antimicrobial Activity MIC [3, 12]: 3.1 µg/mL | % Hemolysis at 25 μg/ml [4]: 17.9%

CC(C)C[C@H](NC(=O)[C@H](Cc1ccc(O)cc1)NC(=O)[C@H](Cc1c[nH]cn1)NC(=O)[C@@H](NC(=O)[C@H](CC(C)C)NC(=O)[C@]1(C)CCCC=CCCC[C@](C)(NC(=O)[C@H](Cc2c[nH]cn2)NC(=O)[C@H](CCCCN)NC(=O)CNC(=O)[C@@H](NC(=O)[C@H](Cc2c[nH]cn2)NC(=O)[C@H](C)NC(=O)[C@H](C)NC(=O)[C@H](CCCCN)NC(=O)[C@H](CCCCN)NC(=O)[C@]2(C)CCCC=CCCC[C@](C)(NC(=O)CN)C(=O)NCC(=O)N[C@@H](CO)C(=O)N[C@@H](Cc3ccccc3)C(=O)N2)C(C)C)C(=O)NCC(=O)N[C@@H](CCCCN)C(=O)N[C@@H](C)C(=O)N1)[C@@H](C)O)C(N)=O [Pleu(i+4)1,15, GXGSFXKKAAHVGKHXGKAXLTHYL] (H-G[S5]GSF[S5]KKAAHVGKH[S5]GKA[S5]LTHYL-NH2; staple 2-6, 16-20)
Antimicrobial Activity MIC [1]: 3.1 µg/mL | Antimicrobial Activity MIC [2]: 3.1 µg/mL | % Hemolysis at 25 μg/ml [4]: 88.2%
